According to publication PMC5387711 (Cell Discovery, 2017):

Biological target: T1, CARF (hCARF; collaborator of ARF) (Homo sapiens, UniProt Q9NXV6)
T1 construct: gene CDKN2AIP; full length; site Cys-516 in C-terminal fragment C1
T1 sequence (Q9NXV6 2-580): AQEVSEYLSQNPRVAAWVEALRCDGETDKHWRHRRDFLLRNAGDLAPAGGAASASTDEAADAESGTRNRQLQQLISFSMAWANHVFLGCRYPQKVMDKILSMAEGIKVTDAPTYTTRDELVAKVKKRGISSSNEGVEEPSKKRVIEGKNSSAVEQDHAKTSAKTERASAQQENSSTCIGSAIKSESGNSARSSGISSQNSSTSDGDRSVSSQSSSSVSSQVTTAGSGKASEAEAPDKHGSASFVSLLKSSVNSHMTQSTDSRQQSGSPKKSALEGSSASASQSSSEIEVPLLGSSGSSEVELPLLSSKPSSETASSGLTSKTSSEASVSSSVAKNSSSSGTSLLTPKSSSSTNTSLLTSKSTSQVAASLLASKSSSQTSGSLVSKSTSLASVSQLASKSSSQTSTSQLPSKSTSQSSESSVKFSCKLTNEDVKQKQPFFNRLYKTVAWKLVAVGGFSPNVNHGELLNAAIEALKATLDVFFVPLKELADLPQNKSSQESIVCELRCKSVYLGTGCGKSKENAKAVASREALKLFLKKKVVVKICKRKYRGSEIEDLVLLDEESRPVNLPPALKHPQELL
Assay: competition with S-614 for bead-bound His6-hCARF
Type: binding
Details: 15 uM NC043 against 7.5 uM S-614, 1 h, 4 C; covalent (Cys-516)

SMILES: C=C1C(=O)[C@]23CC[C@H]1C[C@H]2[C@@]12CCC[C@@](C)(COC1=O)[C@H]2C[C@H]3O [NC043]
- competition with S-614 for bead-bound His6-hCARF: S-614 directly binds to CARF, which could be competed off by NC043
